In patent US10842797B2, “Nutraceutical co-crystal compositions” (UNIVERSITY OF SOUTH FLORIDA, priority 2007, dated 2020):

Protocol: Solubility profiles for co-crystals were determined by UV-vis spectroscopy (Perkin Elmer-Lambda 25 UV-vis spectrometer, 400 nm).
The solubility of KP10 in 1:1 ethanol/water (V/V %) was determined by UV-vis spectroscopy, with a wavelength of 360 nm.
The solubility of KP15 in 1:1 ethanol/water (V/V %) was determined by UV-vis spectroscopy, with a wavelength of 300 nm.

Substance	increase in the solubility of quercetin in the co-crystal when compared to quercetin dehydrate [fold]	increase in the solubility of hesperetin in the co-crystal when compared to pure hesperetin
Co-Crystal of Quercetin and Iso-Nicotinamide [KP10]	~6	–
Co-Crystal of Hesperetin and Iso-Nicotinamide [KP15]	–	approximately 12 fold
